Laboratory results from patent US12358948B2, “Neurotensinergic agonists and methods of using same preventing or treating pain” (priority 2019, dated 2025).
Several values for one entry are separate records, joined by “and”; a condition that tells them apart may be missing. Identical values can stand only once. Entries after “also recorded” stand apart in the source; their conditions may differ. Where a SMILES comes first, the peptide text is derived from it. Bridges are numbered along the chain shown (N, C = ends). [ ]: non-standard residue; d: D form. Ala(cPent) = N[C@@H](CC1CCCC1)C(=O)O; AllylGly = C=CC[C@H](N)C(=O)O

Legend:
[1] = Body temperature (hypothermia) after intrathecal injection; assay type: in vivo, rat; settings: vs saline
Description: Body temperature was measured using a thermistor probe inserted into the rectum of the rats. Animals were individually acclimatized to manipulations and thermistor probe 5 min/day for three consecutive days. […] Changes in body temperature (Δ body temperature) were determined from baseline for each time and each animal. Data represents the mean±SEM of 5-6 rats for each condition.
Data are expressed as mean±standard errors of the mean (SEM). All graphs and statistical analysis were performed using GraphPad Prism™ 7 (GraphPad software, La Jolla, CA, USA). […] A two-way ANOVA followed by Tukey's multiple comparisons test was used to determine the significant differences in changes in body temperature between different concentrations of compounds and saline (FIG. 9). The % MPE for the tail-flick test and the areas under the curve for the formalin test were analyzed using a one-way ANOVA followed by a Dunnett's multiple comparisons test to compare different concentrations of compounds and saline treatment (FIGS. 2B, 4B, 7A-B and 8B-D). […] Nonlinear regression using three parameters was performed for % of ileum relaxation and IC50 value was obtained from the resulting dose-response curve (FIG. 11). A difference in response was considered significant with p-values *p<0.05, **p<0.01, ***p<0.001 and **p<0.0001.

hNTS2 receptor = biological target: T1, hNTS2 receptor (Homo sapiens, UniProt O95665); assay: Competitive radioligand binding assay on the hNTS2 receptor; settings: for IC50: IC50 NTS2, displacement of 125I-[Tyr3]-NT, membranes of 1321N1 cells expressing hNTS2; for Selectivity: ratio IC50 for NTS1 : IC50 for NTS2
T1 construct: membranes prepared from them
T1 sequence (O95665 whole entry): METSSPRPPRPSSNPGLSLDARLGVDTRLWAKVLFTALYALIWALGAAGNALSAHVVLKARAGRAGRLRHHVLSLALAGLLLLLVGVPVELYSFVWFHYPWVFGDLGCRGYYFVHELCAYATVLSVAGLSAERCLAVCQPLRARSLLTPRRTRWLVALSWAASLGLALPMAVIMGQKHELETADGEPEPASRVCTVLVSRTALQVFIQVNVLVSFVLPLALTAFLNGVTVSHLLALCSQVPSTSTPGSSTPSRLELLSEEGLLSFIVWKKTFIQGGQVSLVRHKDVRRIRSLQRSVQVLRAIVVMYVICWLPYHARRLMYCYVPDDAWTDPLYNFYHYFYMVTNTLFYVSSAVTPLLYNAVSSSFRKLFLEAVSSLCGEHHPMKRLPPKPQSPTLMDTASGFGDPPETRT
How it was run: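 Membranes from CHO-K1 cells expressing hNTS1 (15 µg, […] ¹²⁵I-[Tyr³]-NT) or 1321N1 cells expressing hNTS2 (50 µg, […] radioligand) were incubated with analogues at 10⁻¹¹–10⁻⁴ M for 60 min at 25 °C in Tris-HCl pH 7.5/0.2% BSA. Filtration and γ-counting followed; nonspecific binding was defined with 10⁻⁵ M NT(8-13), and IC50 was obtained by one-site fit.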

SMILES	Hypothermia (i.t.) ([1]; 150 μg/kg i.t.)	IC50 (hNTS2 receptor) [nM]	Selectivity (hNTS2 receptor)	Hypothermia (i.t.) ([1]; 209 nmol/kg i.t.)
CC(C)C[C@H](NC(=O)[C@H](Cc1ccc(O)cc1)NC(=O)[C@@H]1CC=CC[C@H](N)C(=O)N[C@@H](CCCCN)C(=O)N[C@@H](CCCCN)C(=O)N1)C(=O)O [compound 34, c[G(All)KKG(All)]YL] (H-[AllylGly]KK[AllylGly]YL-OH; staple 1-4)	no significant variation in body temperature; also recorded: No hypothermia	59.6	3339 and 1685	–
NCCCC[C@@H]1NC(=O)[C@H](CCCCN)NC(=O)[C@@H](N)CC=CC[C@@H](C(=O)N[C@@H](Cc2ccc(O)cc2)C(=O)N[C@@H](CC2CCCC2)C(=O)O)NC1=O [compound 67, c[G(All)KKG(All)]YA(cyclopentyl)] (H-[AllylGly]KK[AllylGly]Y[Ala(cPent)]-OH; staple 1-4)	–	3.06	>32 680	no significant variation in body temperature; also recorded: No hypothermia
